Laboratory results as given in patent publication US20240132464A1, “HETEROCYCLIC COMPOUNDS AS E3 LIGASE INHIBITORS” (Accutar Biotechnology Inc., priority 2022, published 2024).
pIC50: −log10 of the molar value.

Molecular target: T1, GID4 (Uniprot ID: Q81VV7, residues 124-289) (Homo sapiens, UniProt Q8IVV7)
T1 construct: GID4 (Uniprot ID: Q81VV7, residues 124-289)
T1 sequence (Q8IVV7 124-289): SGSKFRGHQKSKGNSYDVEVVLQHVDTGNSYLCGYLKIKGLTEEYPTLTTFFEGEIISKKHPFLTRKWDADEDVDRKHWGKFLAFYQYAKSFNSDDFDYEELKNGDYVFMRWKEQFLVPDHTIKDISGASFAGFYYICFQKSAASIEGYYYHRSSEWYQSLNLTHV
Assay: GID4 competitive binding assay (AlphaScreen, GID4/degron peptide PGLW)
Settings: 24 nM GID4, 48 nM biotinylated degron peptide PGLW, 4° C., read-out: IC50 (Inhibition of GID4/Degron binding by test compounds)
Method in brief: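 Displacement of biotin-tagged degron tetrapeptide PGLW (48 nM) from C-terminally 6His-tagged GID4 124-289 (24 nM) read by AlphaScreen proximity signal. Compound incubation 2 h, then beads 1 h, all at 4 °C, pH 7.5, 2% DMSO final; background-corrected inhibition fitted with variable slope for IC50.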

| SMILES | pIC50 |
| --- | --- |
| Nc1nc(NC2CC2)cc(N2CCOC(c3ccccc3)C2)n1 (single isomer, unassigned) [Compound 96, (R/S)-N4-cyclopropyl-6-(2-phenylmorpholino)pyrimidine-2,4-diamine] | < 5.30 |
| Nc1cc(N2CCNC(c3cc(C(F)(F)F)ccc3Br)C2)nc(N)n1 (single isomer, unassigned) [Compound 11, (R/S)-6-(3-(2-bromo-5-(trifluoromethyl)phenyl)piperazin-1-yl)pyrimidine-2,4-diamine] | 5.30 to 6.30 |
| CC(=O)N1CCN(c2cc(N)nc(N)n2)C[C@H]1c1ccccc1Br (stereo in doubt) [Compound 60, (R/S)-1-(2-(2-bromophenyl)-4-(2,6-diaminopyrimidin-4-yl)piperazin-1-yl)ethan-1-one] | < 5.30 |
| CN(C)CCCNC(=O)c1ccc(-c2cc(O)c3ncccc3c2)c(Br)c1 [Compound 323, 3-bromo-N-(3-(dimethylamino)propyl)-4-(8-hydroxyquinolin-6-yl)benzamide] | 5.30 to 6.30 |
| Nc1nc(N2CCCC(c3ccn[nH]3)C2)c2cc[nH]c2n1 (centres unmarked) [Compound 205, 4-(3-(1H-pyrazol-5-yl)piperidin-1-yl)-7H-pyrrolo[2,3-d]pyrimidin-2-amine] | < 5.30 |
| CC(C)c1cc(N2CCNC(c3cc(F)ccc3Br)C2)nc(N)n1 (centres unmarked) [Compound 174, 4-(3-(2-bromo-5-fluorophenyl)piperazin-1-yl)-6-isopropylpyrimidin-2-amine] | 5.30 to 6.30 |
| CNc1cc(N2CCCC(n3nnc4ccccc43)C2)nc(N)n1 (centres unmarked) [Compound 93, 6-(3-(1H-benzo[d][1,2,3]triazol-1-yl)piperidin-1-yl)-N4-methylpyrimidine-2,4-diamine] | < 5.30 |
| CNc1cc(N2CCCC(c3cnc4ccccn34)C2)nc(NC)n1 (racemic) [Compound 123, (S/R)-6-(3-(imidazo[1,2-a]pyridin-3-yl)piperidin-1-yl)-N2,N4-dimethylpyrimidine-2,4-diamine] | 5.30 to 6.30 |
| CN(C)CCCNC(=O)c1cccc(-c2ccc3ccnc(N)c3c2)c1 [Compound 348, 3-(1-aminoisoquinolin-7-yl)-N-(3-(dimethylamino)propyl)benzamide] | < 5.30 |

More lines, now with the values ahead:

| pIC50 | SMILES |
| --- | --- |
| > 6.30 | CN(C)CCCNC(=O)c1ccc(-c2cc(O)c3ncccc3c2)nc1 [Compound 294, N-(3-(dimethylamino)propyl)-6-(8-hydroxyquinolin-6-yl)nicotinamide] |
| 5.30 to 6.30 | CC(C)c1cc(N2CCC=C(c3ncn4ccccc34)C2)nc(N)n1 [Compound 238, 4-(5-(imidazo[1,5-a]pyridin-1-yl)-3,6-dihydropyridin-1(2H)-yl)-6-isopropylpyrimidin-2-amine] |
| 5.30 to 6.30 | Nc1nccc2ccc(-c3cc(C(=O)N4CCCC4)cc4c3CCCC4)cc12 [Compound 342, (4-(1-aminoisoquinolin-7-yl)-5,6,7,8-tetrahydronaphthalen-2-yl)(pyrrolidin-1-yl)methanone] |
| > 6.30 | CC(C)c1cc(N2CCNC(c3cnc4ccccn34)C2)nc(N)n1 (centres unmarked) [Compound 32, 4-(3-(imidazo[1,2-a]pyridin-3-yl)piperazin-1-yl)-6-isopropylpyrimidin-2-amine] |
| > 6.30 | Nc1cc(N2CCNC(c3ccccc3C(F)(F)F)C2)nc(N)n1 (centres unmarked) [Compound 54, 6-(3-(2-(trifluoromethyl)phenyl)piperazin-1-yl)pyrimidine-2,4-diamine] |
| > 6.30 | CN1CCN(c2cc(NC3CC3)nc(N)n2)CC1c1ccccc1Br (centres unmarked) [Compound 101, 6-(3-(2-bromophenyl)-4-methylpiperazin-1-yl)-N4-cyclopropylpyrimidine-2,4-diamine] |
| > 6.30 | CN(C)CCNCc1n[nH]c2ccc(-c3ccc4ccnc(N)c4c3)cc12 [Compound 3, N1-((5-(1-aminoisoquinolin-7-yl)-1H-indazol-3-yl)methyl)-N2,N2-dimethylethane-1,2-diamine] |
| > 6.30 | Cn1cc(CNC(=O)c2n[nH]c3ccc(-c4ccc5ccnc(N)c5c4)cc23)cn1 [Compound 328, 5-(1-aminoisoquinolin-7-yl)-N-((1-methyl-1H-pyrazol-4-yl)methyl)-1H-indazole-3-carboxamide] |
